The values below come from paper PMC10799935, “Discovery of a peripheral 5HT2A antagonist as a clinical candidate for metabolic dysfunction-associated steatohepatitis” (Nature Communications, 2024).

≈ marks a conversion by molar mass, not a printed value. Entries after “also recorded” stand apart in the source; their conditions may differ.

A short description of data set [1]: Hepatocyte stability test, monkey. In kind it is in vitro ADME, cynomolgus monkey. The following applies: male, cryopreserved hepatocytes, pH 7.4, read-out: Hepatocyte stability (% remaining after 3 h). The protocol: (§1) Hepatocyte incubations for the test compound (10 μM final concentration, n = 2 per each time point) were carried out in mouse, rat, dog, monkey and human cryopreserved hepatocytes, resuspended at a density of 0.5 million cells/ml of modified Krebs-Henseleit buffer (KHB). The information regarding the hepatocytes used in the experiment is as follows: liverPool® 10-donor mixed gender human (BioIVT, Cat.No. X008001, lot EAV), male cynomolgus monkey (BioIVT, Cat.No. M00305, lot COJ), male Beagle dog (BioIVT, Cat.No. M00205, lot USY), male Sprague Dawley rat (BioIVT, Cat.No. M00005, lot TQE) and male CD1 mouse (BioIVT, Cat.No.005052, lot LFF). In addition, the compound was also incubated with blank KHB. The final concentration of solvent (DMSO) was 0.1% of the final volume. The incubations were performed for 3 hours at 37°C and pH 7.4. Reactions were terminated at 0 and 180 minutes by the addition of 3 volumes of stop solution (acetonitrile/methanol (2:1, v/v) containing internal standard–diclofenac at 100 ng/ml). Samples (compound spiked buffer and compound spiked hepatocytes, as well as blank samples, i.e. hepatocytes with the same DMSO%) were then centrifuged and aliquots were transferred to 96-deep micronic tubes and frozen at -80 °C until LC-MS/MS analysis. […]

Data set [2] is described as follows: Hepatocyte stability test, mouse. The settings on record: male, CD1, cryopreserved hepatocytes, pH 7.4, read-out: Hepatocyte stability (% remaining after 3 h). In kind it is in vitro ADME. The protocol:
as §1

Another data set deals with STZ+HFD mice. The data set can be described thus: STZ+HFD mice (modified STAM) NASH and liver fibrosis model. In kind it is in vivo, mouse. The protocol:
Mice were intraperitoneally injected with low-dose streptozotocin (40 mg/kg; 5 times) in 7-week-old mice. After injection with STZ, mice were fed an HFD for 16 weeks to induce NASH and liver fibrosis. After 16 weeks of an HFD, mice were fed a standard chow diet to mimic the NASH patient under […]
nine weeks by oral gavage (Reviewer-only data 4). […]
inflammation, hepatocyte ballooning, and total NAFLD activity score by the NASH CRN histological scoring system (Reviewer-only data 4B, C). […]
hepatic fibrosis stage similar to STZ+HFD mice treated with OCA (Reveiwer-only data 4D, E). STZ+HFD mice […]
function (Reviwer-only data 4F). […]
group (Reviewer-only data 4G). Furthermore, the expression of genes related to lipogenesis and fibrosis was reduced in the compound 11c-treated group in a dose-dependent manner (Reviewer-only data 4H, I). These […]
Reviewer-only Data 4. Compound 11c treatment with dietary modification ameliorates NASH and liver fibrosis in a dose-dependent manner. (A) Experimental scheme for in vivo efficacy of compound 11c in […]
(STZ+HFD mice. (B-I) STZ+HFD mice fed HFD for 16 weeks were switched to SCD for 9 weeks and were treated with vehicle, compound 11c, or OCA by daily oral gavage. (B) Representative liver histology by H&E staining […]
mg/kg. Scale bars, 100µm. […]
mice; n = 9 per group. (D) Representative liver histology by Masson’s trichrome staining from vehicle, […]
Scale bars, 100µm. (E) Fibrosis stage
(F) Serum AST and ALT levels; n = 9 per […]
group. (G) Serum TG levels and hepatic TG levels; n = 9 per group. (H) Relative mRNA expression of lipogenesis-related genes as assessed by qRT-PCR in the liver; n = 9 per group. (I) Relative mRNA expression of fibrosis-related genes as assessed by qRT-PCR in the liver; n = 9 per group. Data are expressed as the means ±SEM.
[…], **P<0.01, one-way ANOVA with post hoc Tukey’s test (C, E, F, G, H, I). […]
Representative liver histology by Masson’s trichrome staining and Sirius Red staining. Scale bars, 100µm. (E) […]
one-way ANOVA with post hoc Tukey’s test (C, E).
Comment 2: In "Methods", the author claims to use HEK293 cells (a type of cell derived from kidney embryos) for cell research, however, the data in Table 5 are the results of hepatocyte experiments. What happened? Response: We appreciate the Reviewer’s comment. HEK293 cells were used for inhibition assay (cell research), shown in Table 1-3 of the main manuscript, while, hepatic cell lines were used for chemical profiling and for “Hepatocyte stability” test, shown in Table 5 of the main manuscript. The “Selectivity” of Compound 11c for different 5HT subtypes is elucidated in response to Comment 6.
We have modified the Methods section to provide clarity.

The nature of a further data set: physchem. The following applies: pH 6.8, aqueous buffer.

As a reminder, the fraction remaining is the share of the starting amount still present when the sample was taken. A word on the solubility: it is the concentration that dissolves in the medium under given conditions. For `Cc1nc2n(c(=O)c1CCN1CCC(=C3c4ccc(Cl)cc4CCc4cccnc43)CC1)CCCC2O` (stereo not drawn) [Compound 11c], the fraction remaining at 3 h, 10 μM in data set [1] was found to be 84.6%; in data set [2], 75%. Further, the Hepatic triglyceride levels entry in the data set on STZ+HFD mice is recorded as “reduced”. In addition, the “plasma AST and ALT levels” value in the data set with STZ+HFD mice was “decreased”. Besides, in the data set on STZ+HFD mice (5 or 10 mg/kg daily oral gavage, nine weeks), the “fibrosis stage and total NAFLD activity score” value is listed as “effectively improved; also recorded: better than obeticholic acid”. Also, the hepatic fibrosis stage entry in the data set on STZ+HFD mice (11c 5 or 10 mg/kg, OCA 10 mg/kg) is reported as “improvement”. Further, in the data set on STZ+HFD mice (NASH CRN scoring), the “hepatic steatosis, lobular inflammation, hepatocyte ballooning, and total NAFLD activity score” value is “improved”. Moreover, the “expression of genes related to lipogenesis and fibrosis” value in the data set with STZ+HFD mice (dose-dependent manner) is reported as “reduced”. The compound also registered a solubility in “physchem” of 1300 µg/mL (≈ 2510 µM).
